From patent US11730714B2, “Compounds for the treatment of neuromuscular disorders” (NMD PHARMA A/S, priority 2017, dated 2023)

Key:
[1] = Pharmacokinetic analysis of C8 in rats, single I.P. dose; type: in vivo, rat; settings: one-bolus I.P. injection
Procedure: This part of the study was performed by Pipeline Biotech A/S (Spørring, Denmark). […] Plasma concentrations (free and bound) were determined by OnTarget Chemistry (Uppsala, Sweden, Project No.: PB243-001).
Before conducting in vivo experiments with animal models of myasthenia gravis, some pharmacokinetic details were obtained for C8 in response to one-bolus I.P. injection.

rat soleus muscles = type: cell-based; settings: 10 and 25 μM C8; 1 μM μ-conotoxin GiiiB; vs control conditions
[2] = tested on: isolated rat soleus muscles; experiment: Recovery of nerve-stimulated force in isolated rat soleus muscles exposed to 3.5 mM Mg2+; type: cell-based; settings: 3.5 mM Mg2+, after 70 min at elevated Mg2+
Procedure: Experiments were performed using rat soleus muscles from either young (4-wk-old) or adult Wistar rats (12-14-week-old). Animal handling, killing and isolation of muscle is described elsewhere All experiments were performed using normal Krebs-Ringer bicarbonate solution (NKR). In solutions with elevated Mg^2+, MgCl2 was added to NKR-solution causing minor increases in osmolarity and ionic strength. In solutions with elevated K^+, 4 mM NaCl was replaced by 4 mM KCl in the NKR.
The aim was to find compounds that by inhibition of CIC-1 channels can recover nerve-stimulated force under conditions of fatigue including conditions where fatigue is caused by compromised neuromuscular transmission. Neuromuscular transmission dysfunction can develop because of both pre- and/or post-synaptic complications in connection with a disorder or as part of neuromuscular blockade during/after surgery. In the initial series of drug testing, experiments were performed with isolated muscles in the presence of sub-maximal ACh receptor antagonist tubocurarine. […] To mimic conditions with pre-synaptic complication (Lambert Eaton syndrome, motor neuron disorder, polyneuropathy) the intact nerve-muscle preparations were incubated at elevated extracellular Mg^2+, which is known to suppress release of ACh from nerve terminals of motor neurons.

isolated human muscles = type: cell-based; settings: 150 μM C8; elevated extracellular K+ and low dose TTX
CIC-1 channels = molecular target: T1, CIC-1 channels (Rattus norvegicus, UniProt P35524); experiment: Electrophysiological measurement of compound inhibition of CIC-1 in rat muscle (Gm, EC50); type: cell-based; settings: rat soleus muscle fibres, three micro-electrode Gm measurement; read-out: EC50 (inhibition of ClC-1 ion channel, Gm)
T1 construct: Gm was measured in individual fibres of whole rat soleus muscles; from tissue; host or cells: soleus muscle of adult (12-14 week old) Wistar rats
T1 sequence (P35524 1-994): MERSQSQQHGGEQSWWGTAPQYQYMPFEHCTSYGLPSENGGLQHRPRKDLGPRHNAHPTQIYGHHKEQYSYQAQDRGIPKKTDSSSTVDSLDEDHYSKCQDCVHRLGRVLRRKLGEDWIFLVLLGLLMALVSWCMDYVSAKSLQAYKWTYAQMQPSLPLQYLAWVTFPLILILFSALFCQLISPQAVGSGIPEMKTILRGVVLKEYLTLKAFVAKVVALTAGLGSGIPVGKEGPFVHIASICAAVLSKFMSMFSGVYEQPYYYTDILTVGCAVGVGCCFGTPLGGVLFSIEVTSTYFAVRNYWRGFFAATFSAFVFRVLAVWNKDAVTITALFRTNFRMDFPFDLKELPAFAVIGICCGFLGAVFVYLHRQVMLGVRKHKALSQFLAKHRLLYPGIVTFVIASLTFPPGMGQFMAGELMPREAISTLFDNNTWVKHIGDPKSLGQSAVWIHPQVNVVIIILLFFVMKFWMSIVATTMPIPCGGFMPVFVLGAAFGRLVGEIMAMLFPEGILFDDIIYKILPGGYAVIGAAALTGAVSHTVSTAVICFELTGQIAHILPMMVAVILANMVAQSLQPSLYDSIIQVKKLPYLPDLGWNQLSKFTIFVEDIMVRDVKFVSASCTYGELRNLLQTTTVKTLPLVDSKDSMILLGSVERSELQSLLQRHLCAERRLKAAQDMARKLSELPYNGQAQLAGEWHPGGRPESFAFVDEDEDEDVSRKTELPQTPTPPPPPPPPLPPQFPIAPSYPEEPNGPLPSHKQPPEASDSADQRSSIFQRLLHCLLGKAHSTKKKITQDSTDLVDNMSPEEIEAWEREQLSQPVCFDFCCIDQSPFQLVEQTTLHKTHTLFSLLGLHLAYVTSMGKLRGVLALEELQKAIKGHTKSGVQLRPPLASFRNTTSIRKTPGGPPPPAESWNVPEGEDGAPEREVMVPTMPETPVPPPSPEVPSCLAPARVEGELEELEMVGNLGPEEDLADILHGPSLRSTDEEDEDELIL

isolated rat muscle = experiment: Measurement of force in an in vitro model: isolated rat soleus nerve-muscle preparation, 115 nM tubocurarine; type: cell-based; settings: 50 μM compound, 40 mins exposure, 115 nM tubocurarine, isolated rat soleus nerve-muscle preparation
Procedure: FIGS. 12A-12B. […] Force traces from a representative muscle stimulated to contract in 1) control condition before addition of neuromuscular blocking agent, 2) the force response to stimulation after 90 minutes incubation with Tubocurarine. […] The traces presented in FIG. 12A (1, 2, 3), correspond to the dotted lines in FIG. 12B, respectively.
Recovery of force is quantified as the percentage of the force prior to tubocurarine that is recovered by the compound.
The current invention relates to compounds that inhibit CIC-1 ion channels and increase muscle excitability and thereby improve muscle function in clinical conditions where muscle activation is failing. Such conditions result in loss of contractile function of skeletal muscle, weakness and excessive fatigue. […]
Experimentally, soleus muscles from 4-5 wk old rats were isolated with the motor nerve remaining attached. […] Stimulation of the motor nerve led to activation of the muscle fibres and ensuing force production that was recorded.
After mounting the nerve-muscle preparation in the experimental setup, the contractile function of the muscle was initially assessed under the control conditions (FIG. 2A). […] To quantify the ability of the compound to restore force the percentage of the initial force that was restored was determined after 40 mins of compound exposure (FIG. 2B) and the point increase is reported in Table 8.

Q: With C[C@H](Oc1ccc(Br)cc1)C(=O)O [Compound C8, (2S)-2-(4-bromophenoxy)propanoic acid] as the molecule, how does the Cl_obs [1] read?
A: 48.69 mL/h

Q: And the VD_obs [1]?
A: 259.62 mL

Q: And the EPP amplitude (rat soleus muscles)?
A: significantly larger EPPs

Q: What about the “50 μM % change after addition (AUC of nerve-stimulated force)” value ([2]; 50 μM compound) of the same molecule?
A: 13 ± 4%

Q: What about the “100 μM % change after addition (AUC of nerve-stimulated force)” value ([2]; 100 μM compound) of the same molecule?
A: 26 ± 5%

Q: What about the contractile force (isolated human muscles) of the same molecule?
A: markedly recovery

Q: What does the source list for “(2S)-2-(4-bromophenoxy)(2-^2H)butanoic acid [Compound A-60]”?
A: EC50 (CIC-1 channels): 7.5 ± 1 µM; Point increase (%) of initial force that was restored (isolated rat muscle): 62%
